Reference: article PMC10155127 (Nature microbiology, 2022)

Test system: E. coli ATCC 25922
Assay: Time-dependent killing
Assay type: cell-based
Conditions: antibiotic at 4x MIC

SMILES: CC1(C)S[C@@H]2[C@H](NC(=O)[C@H](N)c3ccccc3)C(=O)N2[C@H]1C(=O)O [Ampicillin, ampicillin]
- c.f.u. in time-dependent killing: fell below the limit of detection
